The subject of one series is THLE-2 cells. Kind of series: Cell proliferation/viability of cell line derived from normal hepatocytes. To be noted: after 72 h; pladienolide-B 10^−8 M, sorafenib 5 nM. The series is classed as cell-based. The protocol: Cell lines and treatments HepG2, Hep3b, and SNU-387 (HB-8065) cell lines were purchased from ATCC (Manassas, USA) and cultured as recommended. The cells were kept at 37° C. and 5% CO2, and periodically validated by means of STR analysis (GenePrint, Promega, Barcelona, Spain) and analyzed to detect mycoplasma contamination. THLE-2 cells were cultured according to the manufacturer's instructions. […] Positive controls [IGF-1 (10^−6M)] and negative controls [Paclitaxel (10^−7M)] were used.
The determination of cell proliferation, migration, apoptosis, clone and tumorsphere formation was performed as published previously.

Series [1] concerns Hep3b-induced xenograft tumors. Kind of series: Hep3b xenograft model, tumor growth and necrosis. The series is classed as in vivo, nude mice. The settings on record: sorafenib 30 mg/kg in drinking water for 3 days; histopathology vs vehicle. The protocol: For in vitro and in vivo administrations, pladienolide-B (Santa Cruz, Heidelberg, Germany) was resuspended in DMSO (Sigma-Aldrich, Madrid, Spain). For in vitro administration, sorafenib (LC Laboratories, Woburn, USA) was dissolved in DMSO. […] For in vivo tests, sorafenib was dissolved in Cremophor EL/ethanol (50:50).
Experiments with xenograft mice were conducted in accordance with the European Animal Care Regulations under the approval of the university/regional government research ethics committees. 5×10^6 Hep3b cells (n=16 mice; n=32 tumors) in 50 μl of BME (Trevigen, Gaithersburg, MD) were subcutaneously grafted on both flanks of eight-week-old male Fox1nu/Foxn1nu nude mice (Janvier Labs, Le Genest-Saint-Isle, France). Tumor growth was monitored twice a week for 2 months by means of using a digital caliper. In the third week after grafting, when tumors were visible, the mice were treated with vehicle, pladienolide B, sorafenib, or the combination thereof (n=4 mice/treatment; n=8 tumors/treatment). Sorafenib (30 mg/kg) was administered dissolved in drinking water for 3 days; whereas the water of the remaining mice was treated with cremophor/ethanol vehicle. Pladienolide-B (10^−8M) was injected intratumorally on the second day of treatment with sorafenib. […] Tumor necrosis was evaluated after hematoxylin and eosin staining by expert pathologists.

Take `CNC(=O)c1cc(Oc2ccc(NC(=O)Nc3ccc(Cl)c(C(F)(F)F)c3)cc2)ccn1` [sorafenib, reference compound]: the “viability of THLE-2 cells” value in the series on THLE-2 cells is “significantly reduced same”. Moreover, the tumor necrosis result in series [1] is reported as “greater necrosis than tumors treated with vehicle”.
